Source: patent US12459958B2, “Tricyclic compounds as HPK1 inhibitor and the use thereof” (BEIGENE, LTD., priority 2019, dated 2025)

Target: T1, HPK1 kinase (aa1-346, Life Technologies) (Homo sapiens, UniProt Q92918)
T1 construct: HPK1 kinase (aa1-346, Life Technologies); purchased Life Technologies
T1 sequence (Q92918 1-346): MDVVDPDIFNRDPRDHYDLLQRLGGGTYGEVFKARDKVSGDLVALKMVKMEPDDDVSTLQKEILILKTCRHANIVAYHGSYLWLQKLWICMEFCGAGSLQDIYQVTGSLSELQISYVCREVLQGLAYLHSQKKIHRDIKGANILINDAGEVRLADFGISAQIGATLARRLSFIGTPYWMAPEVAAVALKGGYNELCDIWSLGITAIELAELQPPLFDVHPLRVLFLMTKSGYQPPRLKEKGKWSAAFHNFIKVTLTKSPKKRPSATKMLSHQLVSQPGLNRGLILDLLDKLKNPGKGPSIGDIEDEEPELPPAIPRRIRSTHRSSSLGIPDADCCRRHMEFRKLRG
Test: HPK Kinase Activity Assay at 1 mM ATP (TR-FRET)
Type: biochemical
Conditions: HPK1 kinase 40 nM, 0.5 μM STK1 substrate, read-out: Enzymatic activity IC50
Method: HPK Kinase Activity Assay at 1 mM ATP
Compounds disclosed herein were tested for inhibition of HPK1 kinase (aa1-346, Life Technologies) activity in assays based on the time-resolved fluorescence-resonance energy transfer (TR-FRET) methodology. The assays were carried out in 384-well low volume black plates in a reaction mixture containing HPK1 kinase (40 nM), 1 mM ATP, 0.5 μM STK1 substrate and 0-10 μM compound in buffer containing 50 mM HEPES, 0.01% BSA, 0.1 mM Orthovanadate, 10 mM MgCl2, 1 mM DTT, pH=7.0, 0.005% Tween-20. The kinase was incubated with the compounds disclosed herein or DMSO for 60 minutes at room temperature and the reaction was initiated by the addition of ATP and STK1 substrate. After reaction at room temperature for 120 minutes, an equal volume of stop/detection solution was added according to the manufacture's instruction (CisBio). The stop/detection solution contained STK Antibody-Cryptate and XL665-conjugated streptavidin in Detection Buffer. The TR-FRET signals (ratio of fluorescence emission at 665 nm over emission at 620 nm with excitation at 337 nm wavelength) were recorded on a PHERAstar FS plate reader (BMG Labtech). Phosphorylation of STK1 substrate led to the binding of STK Antibody-Cryptate to the biotinylated STK1 substrate, which places fluorescent donor (Eu^3+ crypate) in close proximity to the accepter (Streptavidin-XL665), thus resulting in a high degree of fluorescence resonance energy transfer. The inhibition of HPK1 in presence of increasing concentrations of compounds was calculated based on the ratio of fluorescence at 665 nm to that at 620 nm. The IC50 for each compound was derived from fitting the data to the four-parameter logistic equation by Graphpad Prism software.

Compound | IC50
Cc1cc(-c2cnc3[nH]cc(-c4ccc(C(=O)N(C)CC(C)(C)O)cc4)c3n2)cc2c1N1CCN(C)C[C@H]1CC2 [Example 12A, (R)-4-(2-(3,10-dimethyl-2,3,4,4a,5,6-hexahydro-1H-pyrazino[1,2-a]quinolin-8-yl)-5H-pyrrolo[2,3-b]pyrazin-7-yl)-N-(2-hydroxy-2-methylpropyl)-N-methylbenzamide] | 52 nM
Cc1cc(-c2cnc3[nH]cc(-c4ccc(C(=O)N(C)CC(C)(C)O)cc4)c3n2)cc2c1N1CCN(C)C[C@@H]1CC2 [Example 12B, (S)-4-(2-(3,10-dimethyl-2,3,4,4a,5,6-hexahydro-1H-pyrazino[1,2-a]quinolin-8-yl)-5H-pyrrolo[2,3-b]pyrazin-7-yl)-N-(2-hydroxy-2-methylpropyl)-N-methylbenzamide] | 52 nM
Cc1cc(-c2c[nH]c3ncc(-c4cc(C)c5c(c4)CC[C@@H]4CN(C)CCN54)nc23)ccc1C(=O)N(C)CC(C)(C)O [Example 13A, (R)-4-(2-(3,10-dimethyl-2,3,4,4a,5,6-hexahydro-1H-pyrazino[1,2-a]quinolin-8-yl)-5H-pyrrolo[2,3-b]pyrazin-7-yl)-N-(2-hydroxy-2-methylpropyl)-N,2-dimethylbenzamide] | 101 nM
Cc1cc(-c2c[nH]c3ncc(-c4cc(C)c5c(c4)CC[C@H]4CN(C)CCN54)nc23)ccc1C(=O)N(C)CC(C)(C)O [Example 13B, (S)-4-(2-(3,10-dimethyl-2,3,4,4a,5,6-hexahydro-1H-pyrazino[1,2-a]quinolin-8-yl)-5H-pyrrolo[2,3-b]pyrazin-7-yl)-N-(2-hydroxy-2-methylpropyl)-N,2-dimethylbenzamide] | 96 nM
